Source: US8741888B2, “Sleep aid composition and method” (priority 2010, dated 2014)
Like-named read-outs stand apart in the source and are kept apart here.

Columns and labels:
[1] = system: human
[2] = previous range about 170-174 pounds held for ten years
[3] = system: human; conditions: cited from earlier work

SMILES	drowsiness after getting up ([1]; quetiapine (Seroquel) alone, 75 mg reduced gradually to 50 mg)	drowsiness after getting up ([1]; quetiapine alone, 25 mg)	time the drug had to be taken before going to bed ([1]; quetiapine alone, 25 mg)	grogginess after additional dose taken during the night ([1]; quetiapine alone, 25 mg plus additional quetiapine)	body weight [2] [pounds]	dosage ultimately required after development of tolerance ([3]; quetiapine, Mariani et al. report) [mg]	time after ingestion before the drug enters the system ([3]; quetiapine, background)	side effect at recommended amounts ([3]; quetiapine, Wikipedia, Seroquel prescribing information)	ability to sleep without the drug (dependence) ([1]; after extended use of zolpidem alone)	time asleep before getting up to empty their bladder ([1]; inventor, nightly use)	time kept asleep per dose ([1]; zolpidem (Ambien) alone)	duration of effectiveness ([3]; zolpidem alone, background)	time of use after which tolerance can develop ([3]; zolpidem alone, background)	period of use after which the drug becomes addictive ([3]; zolpidem alone, Kirkwood, Mariani et al.)	effectiveness in maintaining sleep ([3]; zolpidem, Wikipedia, Rosenberg 2006)
OCCOCCN1CCN(C2=Nc3ccccc3Sc3ccccc32)CC1 [quetiapine]	leaving them drowsy, especially in the mornings	did not leave them drowsy after getting up	an hour to an hour and a half	left them a bit groggy during the early part of the day	184	800	about an hour or more	somnolence (drowsiness)	–	–	–	–	–	–	–
Cc1ccc(-c2nc3ccc(C)cn3c2CC(=O)N(C)C)cc1 [zolpidem]	–	–	–	–	–	–	–	–	unable to sleep without zolpidem	four or even three	about four	about four	just a few weeks	about two months or longer	has not adequately demonstrated effectiveness in maintaining sleep
